Assays:
[1] = target: T1, intracellular phosphorylation of EGFR in NCI-H1975 cell line that harbors the EGFR L858R T790M mutations (Homo sapiens, UniProt P00533, L858R/T790M); test: NCI-H1975 pEGFR AlphaLISA assay; assay type: cell-based; conditions: NCI-H1975 cells (EGFR L858R T790M), p-EGFR (Tyr1068), 4-5 hours incubation; read-out: Ext pEGFR H1975 GMean IC50 (nM) Protocol: @Pharmaron AlphaLISA (Num)
T1 construct: NCI-H1975 cell line that harbors the EGFR L858R T790M mutations (ATCC, CRL-5908); host or cells: NCI-H1975
T1 sequence (P00533 25-1210 T790M/L858R): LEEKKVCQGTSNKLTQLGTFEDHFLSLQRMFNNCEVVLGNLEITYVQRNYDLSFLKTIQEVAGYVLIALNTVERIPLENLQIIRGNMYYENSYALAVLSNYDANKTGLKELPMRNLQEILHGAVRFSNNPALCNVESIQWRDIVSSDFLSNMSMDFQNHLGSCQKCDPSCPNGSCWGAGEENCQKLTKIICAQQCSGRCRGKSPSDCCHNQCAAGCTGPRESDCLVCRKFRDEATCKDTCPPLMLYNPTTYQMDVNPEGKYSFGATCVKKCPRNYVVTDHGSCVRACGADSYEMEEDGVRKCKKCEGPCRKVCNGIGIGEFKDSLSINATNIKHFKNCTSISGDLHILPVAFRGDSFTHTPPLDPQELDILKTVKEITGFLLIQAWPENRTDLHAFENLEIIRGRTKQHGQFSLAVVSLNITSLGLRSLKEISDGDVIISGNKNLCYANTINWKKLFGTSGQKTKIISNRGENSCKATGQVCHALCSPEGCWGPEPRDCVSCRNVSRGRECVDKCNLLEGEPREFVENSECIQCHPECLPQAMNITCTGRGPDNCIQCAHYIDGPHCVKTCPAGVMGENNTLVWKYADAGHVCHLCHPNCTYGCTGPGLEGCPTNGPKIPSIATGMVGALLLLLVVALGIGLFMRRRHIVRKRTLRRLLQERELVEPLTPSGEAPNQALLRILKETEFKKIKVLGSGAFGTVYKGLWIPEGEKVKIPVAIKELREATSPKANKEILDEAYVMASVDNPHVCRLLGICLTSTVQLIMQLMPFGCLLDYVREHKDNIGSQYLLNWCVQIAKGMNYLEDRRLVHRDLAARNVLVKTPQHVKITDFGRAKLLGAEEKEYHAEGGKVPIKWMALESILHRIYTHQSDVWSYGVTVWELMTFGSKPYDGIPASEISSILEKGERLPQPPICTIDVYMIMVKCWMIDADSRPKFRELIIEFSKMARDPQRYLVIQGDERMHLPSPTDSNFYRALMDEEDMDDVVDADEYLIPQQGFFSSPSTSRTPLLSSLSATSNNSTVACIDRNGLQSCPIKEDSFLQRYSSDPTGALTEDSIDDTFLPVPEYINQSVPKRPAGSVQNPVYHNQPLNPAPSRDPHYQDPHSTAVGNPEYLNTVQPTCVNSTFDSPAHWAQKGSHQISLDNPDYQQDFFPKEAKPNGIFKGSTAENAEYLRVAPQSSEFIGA
Method: On the next day, the test compounds and DMSO control were added into H1975 cell plate followed by incubation at 37C/5% CO2 for 4-5 hours. […] Then 5 μL of a donor bead mix was added to each well followed by overnight incubation at room temperature in dark. On the next day, the plate was read at a compatible plate reader to obtain pEGFR signal. Percent of pEGFR inhibition was plotted against log concentration of compounds to generate IC50 values.

[2] = target: T2, EGFR (L858R T790M C797S) (Homo sapiens, UniProt P00533, C797S/L858R/T790M); test: Biochemical EGFR inhibition assay (Caliper mobility shift), EGFR LRTMCS; conditions: LRTMCS (PH) IC50 (nM) @ 1 mM ATP (Num), EGFR LRTMCS mutant
T2 construct: purchased SignalChem E10-122VG
T2 sequence (P00533 25-1210 T790M/C797S/L858R): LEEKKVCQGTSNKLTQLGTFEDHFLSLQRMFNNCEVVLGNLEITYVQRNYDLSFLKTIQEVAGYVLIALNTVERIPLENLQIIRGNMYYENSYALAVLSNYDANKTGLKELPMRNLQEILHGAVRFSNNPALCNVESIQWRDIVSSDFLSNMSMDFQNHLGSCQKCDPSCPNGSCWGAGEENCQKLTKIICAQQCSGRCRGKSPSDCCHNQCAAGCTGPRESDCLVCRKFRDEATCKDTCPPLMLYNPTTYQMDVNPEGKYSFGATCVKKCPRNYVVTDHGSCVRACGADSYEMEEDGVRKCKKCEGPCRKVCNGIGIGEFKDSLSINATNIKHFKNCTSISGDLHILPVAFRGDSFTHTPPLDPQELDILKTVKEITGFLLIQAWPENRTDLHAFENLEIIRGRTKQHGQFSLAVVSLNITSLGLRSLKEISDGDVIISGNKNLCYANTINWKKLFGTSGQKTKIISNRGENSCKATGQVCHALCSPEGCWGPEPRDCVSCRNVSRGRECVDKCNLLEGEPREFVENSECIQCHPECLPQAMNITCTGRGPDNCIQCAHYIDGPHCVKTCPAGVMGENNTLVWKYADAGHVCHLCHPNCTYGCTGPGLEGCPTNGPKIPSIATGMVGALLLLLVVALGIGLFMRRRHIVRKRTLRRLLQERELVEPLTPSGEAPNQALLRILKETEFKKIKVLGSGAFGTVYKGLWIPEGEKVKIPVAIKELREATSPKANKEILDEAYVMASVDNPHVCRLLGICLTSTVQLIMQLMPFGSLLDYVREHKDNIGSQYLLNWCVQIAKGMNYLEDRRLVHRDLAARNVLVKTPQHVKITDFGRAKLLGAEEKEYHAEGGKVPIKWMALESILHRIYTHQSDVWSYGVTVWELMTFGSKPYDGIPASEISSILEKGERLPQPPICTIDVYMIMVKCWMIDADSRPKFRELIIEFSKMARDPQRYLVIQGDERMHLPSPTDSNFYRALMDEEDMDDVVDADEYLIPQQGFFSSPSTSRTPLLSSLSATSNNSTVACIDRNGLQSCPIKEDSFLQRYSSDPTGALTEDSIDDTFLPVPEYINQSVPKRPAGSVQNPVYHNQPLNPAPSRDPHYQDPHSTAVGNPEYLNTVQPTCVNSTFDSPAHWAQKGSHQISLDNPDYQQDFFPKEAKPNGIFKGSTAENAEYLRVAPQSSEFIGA
Procedure, shortened: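 Each enzyme was allowed to phosphorylate 10–20% of its peptide at 25° C. before EDTA (35 mM) quench. Separated substrate and product peaks were measured by mobility shift, giving apparent IC50 values.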

Row | Compound | IC50 [1] | IC50 [2]
1 | CC(C)c1cnc(N2C[C@H](O)[C@H]2C)c2cnc(Nc3ccnc(N4CCC(C)(O)CC4)n3)cc12 [Example 128, 1-(4-((8-((2R,3S)-3-hydroxy-2-methylazetidin-1-yl)-5-isopropyl-2,7-naphthyridin-3-yl)amino)pyrimidin-2-yl)-4-methylpiperidin-4-ol] | > 50 nM | < 15 nM
2 | C[C@H](CO)c1ncc(N2CC[C@H]2C)c2cnc(Nc3ccnc(N4CC[C@@H](O)[C@@](C)(F)C4)n3)cc12 (single isomer, unassigned) [Example 178, (3S,4R)-3-fluoro-1-(4-((5-((S)-1-hydroxypropan-2-yl)-8-((R)-2-methylazetidin-1-yl)-2,6-naphthyridin-3-yl)amino)pyrimidin-2-yl)-3-methylpiperidin-4-ol or (3S,4R)-3-fluoro-1-(4-((5-((R)-1-hydroxypropan-2-yl)-8-((R)-2-methylazetidin-1-yl)-2,6-naphthyridin-3-yl)amino)pyrimidin-2-yl)-3-methylpiperidin-4-ol] | > 50 nM | 20 to 30 nM
3 | CO[C@H]1CCN(c2nccc(Nc3cc4c(C(C)C)ccc(N5C[C@H](c6nncn6C)[C@H]5C)c4cn3)n2)C[C@@H]1O (single isomer, unassigned) [Example 218] | 30 to 50 nM | < 15 nM
4 | CC(C)c1cnc(N2C[C@H](O)[C@H]2C)c2cnc(Nc3ccnc(N4CC[C@](C)(O)[C@](C)(F)C4)n3)cc12 (single isomer, unassigned) [Example 170, (3R,4S)-3-fluoro-1-(4-((8-((2R,3S)-3-hydroxy-2-methylazetidin-1-yl)-5-isopropyl-2,7-naphthyridin-3-yl)amino)pyrimidin-2-yl)-3,4-dimethylpiperidin-4-ol or (3S,4R)-3-fluoro-1-(4-((8-((2R,3S)-3-hydroxy-2-methylazetidin-1-yl)-5-isopropyl-2,7-naphthyridin-3-yl)amino)pyrimidin-2-yl)-3,4-dimethylpiperidin-4-ol] | 20 to 30 nM | < 15 nM
5 | C[C@H](C#N)c1ncc(N2CC[C@H]2C)c2cnc(Nc3ccnc(N4CC[C@@H](O)[C@@](C)(F)C4)n3)cc12 (single isomer, unassigned) [Example 157, (S)-2-(7-((2-((3S,4R)-3-fluoro-4-hydroxy-3-methylpiperidin-1-yl)pyrimidin-4-yl)amino)-4-((R)-2-methylazetidin-1-yl)-2,6-naphthyridin-1-yl)propanenitrile or (R)-2-(7-((2-((3S,4R)-3-fluoro-4-hydroxy-3-methylpiperidin-1-yl)pyrimidin-4-yl)amino)-4-((R)-2-methylazetidin-1-yl)-2,6-naphthyridin-1-yl)propanenitrile] | > 50 nM | < 15 nM
6 | CC(C)c1cnc(N2C[C@H](O)[C@H]2C)c2cnc(Nc3ccnc(N4CC[C@](C)(O)C(F)(F)C4)n3)cc12 (single isomer, unassigned) [Example 171, (S)-3,3-difluoro-1-(4-((8-((2R,3S)-3-hydroxy-2-methylazetidin-1-yl)-5-isopropyl-2,7-naphthyridin-3-yl)amino)pyrimidin-2-yl)-4-methylpiperidin-4-ol or (R)-3,3-difluoro-1-(4-((8-((2R,3S)-3-hydroxy-2-methylazetidin-1-yl)-5-isopropyl-2,7-naphthyridin-3-yl)amino)pyrimidin-2-yl)-4-methylpiperidin-4-ol] | 30 to 50 nM | < 15 nM
7 | C[C@@H]1[C@H](F)CN1c1ncc([C@@H](C)CO)c2cc(Nc3ccnc(N4CC[C@@H](O)[C@@](C)(F)C4)n3)ncc12 (single isomer, unassigned) [Example 209, (3S,4R)-3-fluoro-1-(4-((8-((2R,3R)-3-fluoro-2-methylazetidin-1-yl)-5-((R)-1-hydroxypropan-2-yl)-2,7-naphthyridin-3-yl)amino)pyrimidin-2-yl)-3-methylpiperidin-4-ol or (3S,4R)-3-fluoro-1-(4-((8-((2R,3R)-3-fluoro-2-methylazetidin-1-yl)-5-((S)-1-hydroxypropan-2-yl)-2,7-naphthyridin-3-yl)amino)pyrimidin-2-yl)-3-methylpiperidin-4-ol] | > 50 nM | 15 to 20 nM
8 | CC(C)c1ncc(-c2cnn(C)c2)c2cnc(Nc3ccnc(N4CC[C@@H](O)[C@@](C)(F)C4)n3)cc12 [Example 14, (3S,4R)-3-fluoro-1-(4-((5-isopropyl-8-(1-methyl-1H-pyrazol-4-yl)-2,6-naphthyridin-3-yl)amino)pyrimidin-2-yl)-3-methylpiperidin-4-ol] | > 50 nM | < 15 nM
9 | CC(C)c1ccc(N2CC(c3nnco3)C2)c2cnc(Nc3ccnc(N4CC[C@@H](O)[C@@](C)(F)C4)n3)cc12 [Example 111, (3S,4R)-1-(4-((8-(3-(1,3,4-oxadiazol-2-yl)azetidin-1-yl)-5-isopropylisoquinolin-3-yl)amino)pyrimidin-2-yl)-3-fluoro-3-methylpiperidin-4-ol] | < 10 nM | < 15 nM
10 | CNC(=O)C1(F)CN(c2ncc(C(C)C)c3cc(Nc4ccnc(N5CC[C@@H](O)[C@@](C)(F)C5)n4)ncc23)C1 [Example 85, 3-fluoro-1-(6-((2-((3S,4R)-3-fluoro-4-hydroxy-3-methylpiperidin-1-yl)pyrimidin-4-yl)amino)-4-isopropyl-2,7-naphthyridin-1-yl)-N-methylazetidine-3-carboxamide] | 30 to 50 nM | 20 to 30 nM
11 | CC(C)c1cnc(N2CC3(CCS3(=O)=O)C2)c2cnc(Nc3ccnc(N4CC[C@@](C)(O)[C@@H](F)C4)n3)cc12 (single isomer, unassigned) [Example 174, 6-(6-((2-((3S,4R)-3-fluoro-4-hydroxy-4-methylpiperidin-1-yl)pyrimidin-4-yl)amino)-4-isopropyl-2,7-naphthyridin-1-yl)-1-thia-6-azaspiro[3.3]heptane 1,1-dioxide or 6-(6-((2-((3R,4S)-3-fluoro-4-hydroxy-4-methylpiperidin-1-yl)pyrimidin-4-yl)amino)-4-isopropyl-2,7-naphthyridin-1-yl)-1-thia-6-azaspiro[3.3]heptane 1,1-dioxide] | > 50 nM | 20 to 30 nM

Second part, the molecule after the results:

Row | IC50 [1] | IC50 [2] | Compound
12 | 20 to 30 nM | 15 to 20 nM | CC(C)c1cnc(N2CCC3(C2)CC3(F)F)c2cnc(Nc3ccnc(N4CC[C@@H](O)[C@@](C)(F)C4)n3)cc12 (stereo partly drawn) [Example 63, (3S,4R)-1-(4-((8-(1,1-difluoro-5-azaspiro[2.4]heptan-5-yl)-5-isopropyl-2,7-naphthyridin-3-yl)amino)pyrimidin-2-yl)-3-fluoro-3-methylpiperidin-4-ol]
13 | > 50 nM | 30 to 100 nM | CO[C@H]1CN(c2ncc([C@@H](C)CO)c3cc(Nc4ccnc(N5CC[C@@H](O)[C@@](C)(F)C5)n4)ncc23)[C@@H]1C (single isomer, unassigned) [Example 211, (3S,4R)-3-fluoro-1-(4-((5-((R)-1-hydroxypropan-2-yl)-8-((2R,3S)-3-methoxy-2-methylazetidin-1-yl)-2,7-naphthyridin-3-yl)amino)pyrimidin-2-yl)-3-methylpiperidin-4-ol or (3S,4R)-3-fluoro-1-(4-((5-((S)-1-hydroxypropan-2-yl)-8-((2R,3S)-3-methoxy-2-methylazetidin-1-yl)-2,7-naphthyridin-3-yl)amino)pyrimidin-2-yl)-3-methylpiperidin-4-ol]
14 | 20 to 30 nM | < 15 nM | CO[C@H]1CCN(c2nccc(Nc3cc4c(C(C)C)cnc(N5CC(O)C5)c4cn3)n2)C[C@H]1F [Example 44, 1-(6-((2-((3R,4S)-3-fluoro-4-methoxypiperidin-1-yl)pyrimidin-4-yl)amino)-4-isopropyl-2,7-naphthyridin-1-yl)azetidin-3-ol]
15 | 30 to 50 nM | < 15 nM | CC(C)c1cnc(N2CC(n3cncn3)C2)c2cnc(Nc3ccnc(N4CC[C@@H](O)[C@@](C)(F)C4)n3)cc12 [Example 88, (3S,4R)-1-(4-((8-(3-(1H-1,2,4-triazol-1-yl)azetidin-1-yl)-5-isopropyl-2,7-naphthyridin-3-yl)amino)pyrimidin-2-yl)-3-fluoro-3-methylpiperidin-4-ol]
16 | > 50 nM | 20 to 30 nM | CO[C@@H]1CCN(c2nccc(Nc3cc4c(C(C)C)cnc(N5CC(F)C5)c4cn3)n2)C[C@@H]1O (single isomer, unassigned) [Example 118, (3S,4R)-1-(4-((8-(3-fluoroazetidin-1-yl)-5-isopropyl-2,7-naphthyridin-3-yl)amino)pyrimidin-2-yl)-4-methoxypiperidin-3-ol or (3R,4S)-1-(4-((8-(3-fluoroazetidin-1-yl)-5-isopropyl-2,7-naphthyridin-3-yl)amino)pyrimidin-2-yl)-4-methoxypiperidin-3-ol]
17 | > 50 nM | < 15 nM | CO[C@H]1CCN(c2nccc(Nc3cc4c(C(C)C)ccc(N5CC[C@H]5CN)c4cn3)n2)C[C@H]1F [Example 39, 8-((S)-2-(aminomethyl)azetidin-1-yl)-N-(2-((3R,4S)-3-fluoro-4-methoxypiperidin-1-yl)pyrimidin-4-yl)-5-isopropylisoquinolin-3-amine]
